Experimental findings from PMC10820890, “Potential of Tryptamine Derivatives as Multi-Target Directed Ligands for Alzheimer’s Disease: AChE, MAO-B, and COX-2 as Molecular Targets” (Molecules, 2024) are described below.

The target in experiment [1] is T1, MAO-B extracted from the rat brain (Rattus norvegicus, UniProt P19643).
T1 construct: Synaptosomes containing the MAO enzyme were isolated from the rat brain; from tissue; host or cells: rat brain synaptosomes (Dawley rats)
T1 sequence (P19643 1-520): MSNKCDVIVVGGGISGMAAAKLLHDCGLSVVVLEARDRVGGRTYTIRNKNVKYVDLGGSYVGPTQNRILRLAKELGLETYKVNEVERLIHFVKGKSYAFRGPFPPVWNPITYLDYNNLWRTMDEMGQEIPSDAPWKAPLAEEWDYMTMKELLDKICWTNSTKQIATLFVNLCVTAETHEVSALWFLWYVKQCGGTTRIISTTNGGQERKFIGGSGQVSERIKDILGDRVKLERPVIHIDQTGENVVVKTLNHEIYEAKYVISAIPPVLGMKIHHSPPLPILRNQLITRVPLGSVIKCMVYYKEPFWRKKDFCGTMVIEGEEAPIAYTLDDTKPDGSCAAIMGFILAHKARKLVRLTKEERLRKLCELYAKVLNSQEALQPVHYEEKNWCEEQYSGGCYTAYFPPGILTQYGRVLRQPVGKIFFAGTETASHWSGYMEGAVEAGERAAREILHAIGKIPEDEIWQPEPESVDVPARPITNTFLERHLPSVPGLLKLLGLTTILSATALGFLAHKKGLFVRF
Description: MAO-B inhibition, Amplex Red monoamine oxidase assay kit. Type of experiment: biochemical. An excerpt: Synaptosomes containing the MAO enzyme were isolated from the rat brain by the method of Hojas, with some modification. Three Dawley rats of any sex with weight ranging from 200–250 gm were decapitated after administration of an anesthetic agent (mixture of propofol and xylocaine). Immediately, complete brains were removed from the bed of ice on a petri dish, and the brains were washed with ice-chilled PBS (phosphate-buffered saline) of pH 7.0, 0.1M and normal saline. Then, each brain, weighing approximately 1 g, was suspended into 10 mL of ice-chilled […] sucrose pH 7.4 20% w/v accordingly and homogenized for 10 min using Daihan homogenizer HG-15A. Brain homogenate was transferred into a centrifuge tube and centrifuged at a speed of 7500× g rpm for 15 min at 4 °C by a Scan Speed 1730R Microcentrifuge from Labo Gene, Marlborough, MA, USA. The supernatant was preserved, and the solid brain mass debris present on the bottom was discarded. The supernatant was then diluted with ice-chilled distilled PBS as per need and centrifuged over 12,000× g rpm for 20 min at 4 °C through the mentioned microcentrifuge. Then, pellets containing a white solid mass at the bottom (synaptosomes containing the MAO enzyme) were stored, and each pallet was diluted with PBS buffer. Aliquoting of synaptosomes was carried out and stored at −70 °C till the assay was performed.
For the evaluation of the MAO-B inhibition potential of synthesized compounds, the Amplex® Red Monoamine Oxidase Assay kit was purchased from Invitrogen Molecular Probes, Thermo Fisher Scientific, Waltham, MA, USA. This is a one-step fluorometric bioassay that principally detects the resorufin (7-Hydroxy-3H-phenoxazin-3-one), which is a fluorescent moiety formed in the presence of Horseradish Peroxidase (HRP) by the oxidation of nonfluorescent compound Amplex Red (AMR), chemically known as 10-acetyl-3,7-dihydroxyphenoxazine. The hydrogen peroxide (H2O2) was synthesized during the conversion of substrate to its aldehyde product by MAO enzyme action. […] The assay was performed according to the instruction of the manufacturer (http://tools.thermofisher.com/content/sfs/manuals/mp12214.pdf; accessed on 20 October 2020), with a few modifications. The Amplex Red reagent kit was used as compared to other H2O2 detection probes because of its stability and the stability of resorufin, which is a reaction product along with the longer wavelength spectra. Extracted MAO-B enzyme from rat brain was diluted in sodium phosphate buffer of pH 7.4, 0.25 M. The substrate for MAO-B was benzylamine. Pargyline was used as a standard. All the stock solutions of inhibitors were prepared in dimethyl sulfoxide (DMSO) 100%. Different dilutions of inhibitors were prepared in reaction buffer to obtain less than 2% (v/v) DMSO for evading false positive results. The final reaction volume contained a two-fold lower concentration of enzyme and the inhibitors. […] H2O2 working solution was diluted in the reaction buffer to prepare a final concentration of 10 µM H2O2 and used as positive control, and the reaction buffer with no H2O2 was the negative control. The reaction was started by adding 100 µL of working solution in each well of a black, opaque, 96-well microplate holding the controls and samples. A total of 50 µL of the MAO enzyme solution was added into each well. The composition of the working solution was 400 µM Amplex Red reagent, reaction buffer, 2 U/mL HRP, and 2 mM substrate solution. The possible interference that can be produced by the fluorescence of the compounds generated within the reaction mixture because of non enzymatic inhibition was eradicated by the addition of samples with Amplex Red only in the reaction buffer. The fluorescence of the blank (control with no enzyme) was subtracted to correct the background fluorescence. All the reactions were incubated at 37 °C for 30 min. […]

The next experiment addresses AChE from electric eel (Electrophorus electricus, UniProt O42275). Description: biochemical. The following applies: mean of three independent measurements, read-out: AChE (IC50 ± SD). An excerpt:
The AChE inhibitory potential of the synthesized tryptamine derivatives was investigated using a modified Ellman’s method. In this enzymatic assay, thiocholine, the product of enzymatic hydrolysis, lacks a substantial chromophore for UV detection. Therefore, Ellman’s reagent (DTNB) was employed as the chromogenic chemical. Ellman’s procedure for the in vitro acetylcholinesterase inhibition assay is based on a two-step reaction involving the chemical components DTNB (5,5-dithiobis(2-nitro) benzoic acid), a hydrolyzed substrate (thiocholine), and the enzyme AChE [59]. In the first step, the substrate acetylthiocholine iodide undergoes hydrolysis catalyzed by the AChE enzyme, resulting in the formation of thiocholine and acetic acid. In the second step, TNB (5-thio-2-nitrobenzoic acid) is generated by the reaction between Ellman’s reagent (DTNB) and thiocholine through an electron-shifting process to sulfur. […] Higher enzyme activity is reflected by an increase in absorbance at this wavelength. The formation of TNB is directly associated with the hydrolysis of acetylthiocholine iodide. Each reaction was initiated by taking a 2 mL working solution, which consisted of 150 µL of the sample (either test compounds or positive control), 50 µL of 0.22 units/mL acetylcholinesterase enzyme from electric eel origin (AChE, E.C. 3.1.1.7, in lyophilized powder, ≥1000 unit), and sodium phosphate buffer (0.1 M, pH 7.4), making it up to a total of 2 mL. The working solution was then incubated at room temperature ([…]) for 15 min, after which 1 mL of Ellman’s solution (200 µL of 75 mM ACTI and 500 µL of 10 mM DTNB in 15 mL sodium phosphate buffer) was added. The stock solutions of tryptamine analogs were prepared in dimethyl sulfoxide (DMSO) 100%. […] All chemicals were purchased from Sigma-Aldrich, St. Louis, MO, USA and TCI Tokyo Chemical Industry Co., Ltd., Saitama, Japan. […] A negative control reaction was also performed under the same conditions but without the inclusion of samples. In this assay, the blank consisted of sodium phosphate buffer. Each experiment was conducted in triplicate.
The percentage of acetylcholinesterase inhibition activity for each tested dilution was calculated using the following equation: Percent inhibition activity%=Absorbance of control−Absorbance of test/Absorbanec of control×100
The results were then presented in a tabular format as the mean IC50 ± SD. The IC50 values, which represent the half-maximal inhibitory concentration, were determined by creating a graph that relates different concentrations (µM) to the percent inhibition (%) using the linear regression method provided by GraphPad Prism software 7 [61, 62, 63].

The next experiment addresses T2, Human recombinant COX-2 (Homo sapiens, UniProt P35354).
T2 construct: purchased BioVision (kit manual cited); the text also says reagents came from Sigma-Aldrich K547
T2 sequence (P35354 18-604): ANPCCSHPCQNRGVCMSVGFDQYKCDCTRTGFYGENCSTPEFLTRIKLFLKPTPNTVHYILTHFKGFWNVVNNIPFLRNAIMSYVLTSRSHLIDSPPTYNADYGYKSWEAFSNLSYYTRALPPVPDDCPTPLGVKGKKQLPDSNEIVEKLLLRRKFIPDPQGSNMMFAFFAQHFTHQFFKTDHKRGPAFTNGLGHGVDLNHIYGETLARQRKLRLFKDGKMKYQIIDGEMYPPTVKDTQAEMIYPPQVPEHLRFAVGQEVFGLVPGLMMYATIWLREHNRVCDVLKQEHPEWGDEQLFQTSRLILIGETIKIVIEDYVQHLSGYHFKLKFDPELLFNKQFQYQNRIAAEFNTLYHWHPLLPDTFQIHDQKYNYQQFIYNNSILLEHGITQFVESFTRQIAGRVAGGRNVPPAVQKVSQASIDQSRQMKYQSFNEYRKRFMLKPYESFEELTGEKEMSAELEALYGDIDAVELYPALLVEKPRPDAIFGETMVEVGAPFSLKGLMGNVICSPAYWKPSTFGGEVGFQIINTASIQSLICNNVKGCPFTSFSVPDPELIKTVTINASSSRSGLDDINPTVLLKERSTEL
The experiment can be described thus: In vitro fluorometric COX-2 inhibition assay kit. It is filed as biochemical. To be noted: compounds tested at 100 µM, mean of three independent measurements; for inhibition at 100 µM: read-out: COX-2 (%Inhibition ± SD). On the procedure:
The fluorometric COX-2 inhibition assay kit provides a simple, fast, sensitive, and consistent method appropriate for carrying out high-throughput analysis for COX-2 inhibitors. The assay is based on the formation of prostaglandin G2 (PG2), which is an intermediate made from arachidonic acid under the action of the COX-2 enzyme. The reagents were prepared, and testing procedures were executed according to these recommended guidelines. The fluorescence of the samples was measured in an opaque 96-well plate at a temperature of 37 °C, precisely 5 min after the initiation of the experiment, utilizing a microplate reader from Thermo Scientific, USA. All compounds were tested at a concentration of 100 µM in a DMSO-1% solution. […] Dilutions were prepared in sodium phosphate buffer 0.1 M, pH 7.4. All the reagents were purchased from Sigma-Aldrich, St. Louis, MO, USA. The mean fluorescence values were calculated to determine the percentage of inhibition achieved by each compound. […] Each experiment was conducted in triplicate, and the percent inhibition was calculated using the following formula: % Inhibition=fluorescence of control−fluorescence of test compound/fluorescence of control×100

[2] abbreviates: MAO-B extracted from rat brain, substrate benzylamine, mean of three independent measurements, read-out: MAO-B (IC50 ± SD).

Read-outs that look alike come from different tables or passages of the source.

Chain of AChE from electric eel (O42275 24-633): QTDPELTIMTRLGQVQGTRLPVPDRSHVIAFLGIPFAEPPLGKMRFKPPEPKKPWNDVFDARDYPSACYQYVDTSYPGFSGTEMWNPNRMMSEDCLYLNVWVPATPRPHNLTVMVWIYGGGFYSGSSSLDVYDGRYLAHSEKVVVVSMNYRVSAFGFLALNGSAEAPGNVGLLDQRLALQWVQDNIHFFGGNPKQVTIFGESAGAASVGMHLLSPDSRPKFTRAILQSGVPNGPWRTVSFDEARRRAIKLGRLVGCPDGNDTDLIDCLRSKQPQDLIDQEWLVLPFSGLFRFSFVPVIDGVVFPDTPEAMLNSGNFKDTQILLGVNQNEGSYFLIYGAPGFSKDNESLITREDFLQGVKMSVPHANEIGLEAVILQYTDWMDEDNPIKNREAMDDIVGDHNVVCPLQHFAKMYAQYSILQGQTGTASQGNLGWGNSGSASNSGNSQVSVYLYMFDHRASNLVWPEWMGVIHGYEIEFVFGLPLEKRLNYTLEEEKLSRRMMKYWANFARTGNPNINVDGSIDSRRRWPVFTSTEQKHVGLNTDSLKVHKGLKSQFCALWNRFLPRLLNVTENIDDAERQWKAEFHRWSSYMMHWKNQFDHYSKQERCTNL

In general, IC50 refers to the concentration needed to halve the response being measured. Take `C#CCN(C)Cc1ccccc1` [Pargyline, reference compound]: the IC50 in experiment [1] (setting [2]) turned out to be 23.4 ± 0.32 µM.

One may read the inhibition as the change of the read-out against control, counted positive when it falls. On to `O=C(CNCCc1c[nH]c2ccccc12)c1ccc2ccccc2c1` [SR08], for which the IC50 is 4.36 ± 0.12 µM at AChE from electric eel and 244.2 ± 1 µM in experiment [1] (setting [2]). Also, the inhibition at 100 µM on Human recombinant COX-2 worked out at 72.3 ± 1.67%.

For `O=C(CNCCc1c[nH]c2ccccc12)c1ccc(F)cc1` [SR10], the IC50 stood at 1 ± 0.08 µM on AChE from electric eel and 216.1 ± 0.29 µM in experiment [1] (setting [2]). Moreover, the inhibition at 100 µM at Human recombinant COX-2 is over 70%.

On to `O=C(CNCCc1c[nH]c2ccccc12)c1ccc(F)cc1F` [SR13], for which the IC50 came out at 9.68 ± 0.16 µM at AChE from electric eel and 50.6 ± 0.64 µM in experiment [1] (setting [2]). Further, the inhibition at 100 µM at Human recombinant COX-2 worked out at 73.8 ± 2.37%.

In the case of `Cc1ccc(C(=O)CNCCc2c[nH]c3ccccc23)cc1` [SR14], the values for the IC50 (at AChE from electric eel; in experiment [1] (setting [2])) were 68.71 ± 0.24 µM and 112.2 ± 0.29 µM, respectively. The inhibition at 100 µM at Human recombinant COX-2 was 65.3 ± 2.65%.

`COc1ccc(C(=O)CNCCc2c[nH]c3ccccc23)cc1` [SR17]: the values for the IC50 (on AChE from electric eel; in experiment [1] (setting [2])) were 8.23 ± 0.12 µM and 150.1 ± 0.26 µM, respectively. For the same compound, the inhibition at 100 µM at Human recombinant COX-2 was 72.8 ± 2.54%.

On to `O=C(CNCCc1c[nH]c2ccccc12)c1ccc(O)c(O)c1` [SR20], for which the IC50 amounted to 24.97 ± 0.05 µM at AChE from electric eel and 222.1 ± 0.32 µM in experiment [1] (setting [2]). Moreover, the inhibition at 100 µM at Human recombinant COX-2 stood at 68.7 ± 3.86%.

Turning to `O=C(CNCCc1c[nH]c2ccccc12)c1ccccc1[N+](=O)[O-]` [SR21], the IC50 came to 87.73 ± 0.16 µM at AChE from electric eel and 142.1 ± 0.32 µM in experiment [1] (setting [2]). The inhibition at 100 µM on Human recombinant COX-2 amounted to 34.4 ± 3.34%.

`O=C(CNCCc1c[nH]c2ccccc12)c1cccc([N+](=O)[O-])c1` [SR22]: the 50% inhibitory concentration (IC50) at AChE from electric eel is 54.88 ± 0.19 µM; in experiment [1] (setting [2]), 56.46 ± 0.41 µM. Moreover, the inhibition at 100 µM at Human recombinant COX-2 amounted to 84.1 ± 4.53%.

In the case of `O=C(CNCCc1c[nH]c2ccccc12)c1ccc([N+](=O)[O-])cc1` [SR23], the half-inhibitory concentration (IC50) was found to be 7.33 ± 0.12 µM at AChE from electric eel and 95.1 ± 0.43 µM in experiment [1] (setting [2]). In addition, on Human recombinant COX-2 (100 µM), the “COX-2 (%Inhibition ± SD)” value came out at 71.40 ± 3.11%. The inhibition at 100 µM on Human recombinant COX-2 came to 69.4 ± 3.11%.

Turning to `O=C(CNCCc1c[nH]c2ccccc12)c1ccc(-c2ccccc2)cc1` [SR24], the values for the IC50 (at AChE from electric eel; in experiment [1]) were 6.7 ± 0.08 µM and 133.2 ± 0.46 µM, respectively. On Human recombinant COX-2, the inhibition at 100 µM came to 79.3 ± 2.02%.

As for `O=C(CCNCCc1c[nH]c2ccccc12)c1ccccc1` [SR25], the IC50 at AChE from electric eel turned out to be 0.17 ± 0.02 µM; in experiment [1] it was 85.1 ± 0.26 µM. At Human recombinant COX-2, the inhibition at 100 µM is over 70%.

On to `O=C(NCCc1c[nH]c2ccccc12)c1cc([N+](=O)[O-])cc([N+](=O)[O-])c1` [SR42], for which the results for the half-inhibitory concentration (IC50) (at AChE from electric eel; in experiment [1] (setting [2])) were 0.7 ± 0.21 µM and 43.2 ± 0.46 µM, respectively. In addition, the inhibition at 100 µM at Human recombinant COX-2 was over 70%.

With `NCCc1c[nH]c2ccccc12` [Tryptamine], the IC50 on AChE from electric eel was found to be 88.26 ± 0.24 µM; in experiment [1] (setting [2]) it was 288.1 ± 0.32 µM. The inhibition at 100 µM at Human recombinant COX-2 is 57.3 ± 4.96%.
